Results from US20240341301A1 (The Regents of the University of Michigan, priority 2023, published 2024).
Values belong to the compound of their own block, whether it stands above or below them.

How the values were obtained:
[1] = tested on: HL-1 murine cardiomyocytes; experiment: HL-1 cardiomyocytes in HTK under normoxic or hypoxic conditions, Western blot; format: cell-based, mouse; conditions: for HO1 protein abundance / NRF2 / SOD1 protein abundance: normoxic and hypoxic conditions
Experimental: HL-1 murine cardiomyocytes cells (Sigma-Aldrich, SCC065) were cultured in Claycomb Medium (Sigma-Aldrich, 51800C). […] The medium was then changed to cold HTK solution and incubated in an hypoxic incubation chamber (Stem cell technologies). The chamber cold hypoxic conditions consist premixed of 1% Oxygen and 5% Carbon dioxide gas (Cryogenic gases, Detroit MI) with cell culture at 4° C. for 2 hours. After cold preservation culture, the medium was changed to 37° C. DMEM at atmospheric conditions and cells were incubated for an additional 2 hours. Cell lysates were then collected for Western blot analysis.

[2] = tested on: murine donor hearts; experiment: Murine donor heart tissue staining and Western blot (oxidative stress, antioxidant proteins, cell death); set-up: species or system mouse; conditions: donor mice treated with 4-OI
Experimental: (§1) Male and female WT or Irg1^−/− mice (Jackson laboratories, Bar Harbor, ME) were anesthetized intraperitoneally with 80 mg/kg ketamine and 5 mg/kg xylazine, anticoagulated with heparin (2,000 U/kg iv), and the heart was rapidly exposed through a sternal incision. The aorta was cannulated and retrograde perfused in-situ with HTK solution±HDAC inhibitors. After cannulation, the heart dissected free, the left atrium was opened. For 4-OI (Cayman Chemical, 25374) experiments, donor mice were treated 4-OI (dissolved in 40% β-Cyclodextrin, 50 mg/kg intraperitoneally) or vehicle control (40% β-Cyclodextrin intraperitoneally) 2 hours prior to donor heart procurement. After dissection, the heart was stored at 4° C. with HTK or HTK with VPA for a pre-designated duration. The hearts were then mounted on a Radnoti mouse Langendorff apparatus (ADInstruments inc., Colorado Springs, CO) in constant-pressure mode (˜70 mmHg) with a modified Krebs-Henseleit buffer (KHB; in mM: 118 NaCl, 4.7 KCl, 1.25 CaCl2), 1.66 MgSO4, 24.88 NaHCO3, 1.18 KH2PO4, 5.55 glucose, and 2.0 Na-pyruvate). A balloon was placed in the LV through the left atrium and left ventricular diastolic pressure was set to ˜8 mmHg at initiation. The heart was perfused with modified Krebs-Henseleit buffer for 30 min to stabilize and then hemodynamics measurements were recorded. Myocardial temperature was maintained at 37° C. LabChart software (ADInstruments inc., Colorado Springs, CO) was used to record ventricular function, perfusion pressures, cardiac chamber temperature and myocardial temperature. After perfusing the heart for 60 minutes, the heart was removed from the ex-vivo perfusion apparatus for specimen collection. Tissue was immediately placed in liquid N2 or treated with 4% formalin.

[3] = tested on: murine donor hearts; experiment: Murine ex-vivo heart perfusion after cold preservation; set-up: species or system mouse; conditions: for ex vivo donor heart contractility / ex vivo donor heart relaxation: HDAC inhibitor in HTK, 16 hours cold preservation
Experimental: as §1

[4] = tested on: H9C2 cardioblast; experiment: Doxorubicin-treated H9C2 cardioblast; format: cell-based; conditions: 1 μM doxorubicin
Experimental: FIG. 18. FIG. 4. […] The doxorubicin-induced cell death were evaluated by cleaved caspase 3 using western blot.
FIG. 19. FIG. 4. […] The 5-hmC level were detected using immunostaining.

[5] = tested on: Irg1; experiment: Irg1 mRNA transcript expression in preserved murine donor hearts; set-up: species or system mouse; conditions: 16 hours preservation without reperfusion and during ex vivo perfusion
Experimental: as §1

[6] = cited from earlier work
[7] = tested on: mice; experiment: Doxorubicin-induced cardiotoxicity in mice; format: in vivo, mouse; conditions: 5 mg/Kg doxorubicin for 5 weeks, I.P. every 3.5 days
Experimental: FIG. 16. […] 6-week mice were treated with 5 mg/Kg doxorubicin for 5 weeks. […] There are improved ejection fraction, stroke volume, and increased heart and lung weight in itaconate-treated groups compared to saline-treated groups.
FIG. 17. […] 6-week mice were treated with 5 mg/Kg doxorubicin for 5 weeks.

[8] = donor mice treated 4-OI 50 mg/kg intraperitoneally 2 hours prior to procurement, 16 hours of preservation, ex vivo perfusion
[9] = compared to saline-treated groups

SMILES: C=C(CC(=O)OCCCCCCCC)C(=O)O [4-OI, 4-octyl itaconate]
- HO1 protein abundance [1]: enhanced
- NRF2 [1]: no changes
- SOD1 protein abundance [1]: enhanced
- NRF2 nuclear translocation in cardiac tissue [2]: increased
- oxidative DNA damage (8-OHdG fluorescence) [2]: reduced
- cardiac contractility [3, 8]: improved
- cardiac relaxation [3, 8]: improved

- 5-hmC level ([4]; immunostaining): induces accumulation
SMILES: COc1cccc2c1C(=O)c1c(O)c3c(c(O)c1C2=O)C[C@@](O)(C(=O)CO)C[C@@H]3O[C@H]1C[C@H](N)[C@H](O)[C@H](C)O1 [Doxorubicin, doxorubicin]

SMILES: O=C(CCCCCCC(=O)Nc1ccccc1)NO [SAHA, Suberoylanilide hydroxamic acid]
- Irg1 transcript expression [5]: increased
- ex vivo donor heart contractility [3]: improved
- ex vivo donor heart relaxation [3]: improved
- water solubility [6]: poorly water soluble

SMILES: CC(/C=C/C(=O)NO)=C\[C@@H](C)C(=O)c1ccc(N(C)C)cc1 [TSA, Trichostatin A]
- Irg1 transcript expression [5]: increased
- ex vivo donor heart contractility [3]: improved
- ex vivo donor heart relaxation [3]: improved
- water solubility [6]: poorly water soluble

SMILES: C=C(CC(=O)O)C(=O)O [itaconate]
- antioxidant expression (HO1, SOD1) ([1]; itaconate 10 mM in HTK, normoxic (20% O2) and hypoxic (1% O2), 2 hours): increased
- HO1 protein abundance [1]: enhanced
- NRF2 [1]: no changes
- SOD1 protein abundance [1]: enhanced
- cardiomyocyte apoptosis (cleaved caspase 3, western blot) ([4]; 2 mM itaconate, 18 hours): reduced
- doxorubicin induced 5-hmC accumulation ([4]; 2 mM itaconate, immunostaining): reduce
- murine donor heart function ([3]; after 16 hours of storage): improved
- serum cTnI level [7]: reduced
- ejection fraction [7, 9]: improved
- heart and lung weight [7, 9]: increased
- stroke volume [7, 9]: improved
